The experiment concerns the target T1, Na^+ /H^+ exchanger of rabbit erythrocytes (Oryctolagus cuniculus, UniProt P23791).
T1 construct: endogenous in cells; host or cells: erythrocytes in whole blood of cholesterol-fed White New Zealand rabbits (Ivanovas)
Description: Inhibition of the Na+/H+ exchanger of rabbit erythrocytes (amiloride-sensitive sodium influx, flame photometry). It counts as cell-based, rabbit (White New Zealand). The following applies: hyperosmolar salt/sucrose medium, pH 7.4, 37° C. The text has this:
Inhibition of the Na^+ /H^+ exchanger of rabbit erythrocytes White New Zealand rabbits (Ivanovas) received a standard diet containing 2% cholesterol for six weeks in order to activate Na^+ /H^+ exchange and thus to make it possible to determine the Na^+ influx into the erythrocytes via Na^+ /H^+ exchange by flame photometry. The blood was taken from the arteries of the ear and anticoagulated with 25 IU of potassium heparin. Part of each sample was used for duplicate determination of the hematocrit by centrifugation. Aliquots each of 100 μl were used to measure the Na^+ content of the erythrocytes.
In order to determine the amiloride-sensitive sodium influx, 100 μl of each blood sample were incubated in each case in 5 ml of a hyperosmolar salt/sucrose medium (mmol/l: 140 NaCl, 3 KCl, 150 sucrose, 0.1 ouabain, 20 trishydroxymethylaminomethane) at pH 7.4 and 37° C. The erythrocytes were then washed three times with ice-cold MgCl2 /ouabain solution (mmol/l: 112 MgCl2, 0.1 ouabain) and hemolyzed in 2.0 ml of distilled water. The intracellular sodium content was determined by flame photometry.
The net Na^+ influx was calculated from the difference between the initial sodium levels and the sodium content of the erythrocytes after incubation. […]

SMILES strings stand for the structures. Structures can show the parent of a compound that is named as a salt.

T1 sequence (P23791 whole entry): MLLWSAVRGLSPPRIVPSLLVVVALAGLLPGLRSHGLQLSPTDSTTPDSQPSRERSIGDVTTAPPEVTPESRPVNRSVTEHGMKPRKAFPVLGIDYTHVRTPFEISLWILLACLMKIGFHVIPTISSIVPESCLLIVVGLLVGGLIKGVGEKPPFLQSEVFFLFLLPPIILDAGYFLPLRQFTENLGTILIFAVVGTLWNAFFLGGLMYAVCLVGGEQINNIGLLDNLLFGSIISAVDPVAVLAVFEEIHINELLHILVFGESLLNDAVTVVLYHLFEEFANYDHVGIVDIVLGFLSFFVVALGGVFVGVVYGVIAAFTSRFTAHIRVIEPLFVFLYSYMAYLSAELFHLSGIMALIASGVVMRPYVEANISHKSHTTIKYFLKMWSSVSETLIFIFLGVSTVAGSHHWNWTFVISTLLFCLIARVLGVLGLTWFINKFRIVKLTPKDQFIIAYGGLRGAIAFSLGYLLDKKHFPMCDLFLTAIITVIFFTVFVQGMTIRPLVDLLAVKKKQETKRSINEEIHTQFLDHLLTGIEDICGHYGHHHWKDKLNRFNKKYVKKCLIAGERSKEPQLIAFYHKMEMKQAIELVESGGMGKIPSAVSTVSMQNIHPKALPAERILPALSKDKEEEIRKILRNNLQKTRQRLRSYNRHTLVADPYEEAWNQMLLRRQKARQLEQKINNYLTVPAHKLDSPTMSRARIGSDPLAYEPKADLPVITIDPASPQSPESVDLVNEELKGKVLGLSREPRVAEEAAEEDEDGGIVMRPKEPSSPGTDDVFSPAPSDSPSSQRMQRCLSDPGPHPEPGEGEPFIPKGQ

As a reminder, the IC50 is the concentration at which inhibition is half-maximal. As for `CC(C)c1ccc(C(=O)N=C(N)N)cc1NS(C)(=O)=O` [Example 1, 4-Isopropyl-3-methylsulfonylaminobenzoylguanidine, hydrochloride], the IC50 is 300 nM.

As for `CS(=O)(=O)Nc1cc(C(=O)N=C(N)N)ccc1Oc1cccnc1` [Example 2, 3-Methylsulfonylamino-4--(3-pyridyloxy)benzoylguanidine], the IC50 is 740 nM.

Values taken from US5856344A, “Sulfonylamino-substituted benzoylguanidines, a process for their preparation, their use as a medicament or diagnostic aid, and medicament containing them” (Hoechst Aktiengesellschaft, priority 1995, dated 1999).
